Test results from US20230085307A1, “PYRIDAZINONE COMPOUND AND HERBICIDE” (NISSAN CHEMICAL CORPORATION, priority 2019, published 2023).

Tests used:
late watergrass [1] = experiment: Test Example 1: herbicidal activity, application before weed generation under submerged conditions (Table 16, symbol A); format: in vivo, late watergrass (Echinochloa oryzicola); details: amount of applied herbicide 320 g/ha
Method in brief: (§1)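 Emulsion formulation, water-diluted to set dose, was put onto the flooded surface (4 cm depth, alluvial soil) the same day weeds were sown and 2.5-leaf rice transplanted. After 3 weeks at 25-30 °C under glass, each species was rated 0 (≤5% kill) to 5 (≥90% kill).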

Japanese bulrush [2] = experiment: Test Example 2: herbicidal activity, application during weed generation under submerged conditions (Table 17, symbol B); format: in vivo, Japanese bulrush (Schoenoplectus juncoides); details: AAH 320 g/ha; application during weed generation, submerged conditions
Method in brief: (§2)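 Steps: fill Wagner pots with alluvial soil; add water to give 4 cm depth; sow the species mixed; grow under glass at 25–30° C.; at 1–2 leaves apply water-diluted emulsion formulation to the water surface at a fixed herbicide amount; score after 3 weeks.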

Japanese bulrush [3] = experiment: Test Example 1: herbicidal activity, application before weed generation under submerged conditions (Table 16, symbol B); format: in vivo, Japanese bulrush (Schoenoplectus juncoides); details: amount of applied herbicide 320 g/ha
Method in brief: as §1

Italian ryegrass [4] = experiment: Test Example 4: herbicidal effect by soil treatment (Table 19, symbol K); format: in vivo, Italian ryegrass (Lolium multiflorum); details: amount of applied herbicide 320 g/ha
Method in brief: (§3)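 Pre-emergence style soil spray: seeds under ~1.5 cm sterilized diluvial soil received a uniform coat of emulsion diluted to the predetermined herbicide amount. Greenhouse 25–30° C; readout at week three on previously defined criteria.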

late watergrass [5] = experiment: Test Example 2: herbicidal activity, application during weed generation under submerged conditions (Table 17, symbol A); format: in vivo, late watergrass (Echinochloa oryzicola); details: AAH 320 g/ha; application during weed generation, submerged conditions
Method in brief: as §2

redroot pigweed = experiment: Test Example 5: herbicidal effect by foliage application, plastic box (Table 20, symbol N); format: in vivo, redroot pigweed (Amaranthus retroflexus); details: 320 g/ha; for N: redroot pigweed, herbicidal effect grade: foliage application, three weeks after application
Method in brief: (§4)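 Plants were sown into sterilized diluvial soil under about 1.5 cm cover and kept in a greenhouse at 25° C. to 30° C. Fourteen days on, foliage received an even spray of the diluted emulsion. Herbicidal or crop effect was judged three weeks afterwards.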

Italian ryegrass [6] = experiment: Test Example 5: herbicidal effect by foliage application, plastic box (Table 20, symbol K); format: in vivo, Italian ryegrass (Lolium multiflorum); details: 320 g/ha; for K: Italian ryegrass, herbicidal effect grade: foliage application, three weeks after application
Method in brief: as §4

chickweed = experiment: Test Example 4: herbicidal effect by soil treatment (Table 19, symbol P); format: in vivo, common chickweed (Stellaria media); details: amount of applied herbicide 320 g/ha
Method in brief: as §3

barnyard grass [7] = experiment: Test Example 4: herbicidal effect by soil treatment (Table 19, symbol H); format: in vivo, barnyard grass (Echinochloa crus-galli); details: amount of applied herbicide 320 g/ha
Method in brief: as §3

persian speedwell = experiment: Test Example 4: herbicidal effect by soil treatment (Table 19, symbol R); format: in vivo, Persian speedwell (Veronica persica); details: amount of applied herbicide 320 g/ha
Method in brief: as §3

blackgrass [8] = experiment: Test Example 4: herbicidal effect by soil treatment (Table 19, symbol J); format: in vivo, blackgrass (Alopecurus myosuroides); details: amount of applied herbicide 320 g/ha
Method in brief: as §3

wild oat [9] = experiment: Test Example 4: herbicidal effect by soil treatment (Table 19, symbol I); format: in vivo, wild oat (Avena fatua); details: amount of applied herbicide 320 g/ha
Method in brief: as §3

blackgrass [10] = experiment: Test Example 5: herbicidal effect by foliage application, plastic box (Table 20, symbol J); format: in vivo, blackgrass (Alopecurus myosuroides); details: 320 g/ha; for J: blackgrass, herbicidal effect grade: foliage application, three weeks after application
Method in brief: as §4

barnyard grass [11] = experiment: Test Example 3: herbicidal effect by foliage application, Wagner pot (Table 18, symbol H); format: in vivo, barnyard grass (Echinochloa crus-galli); details: for herbicidal effect on barnyard grass (H): 320 g/ha; for herbicidal effect on H: barnyard grass: amount of applied herbicide 320 g/ha
Method in brief: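 Plants were sown in alluvial soil held under 0.1–0.5 cm standing water and grown 14 days in a greenhouse at 25–30 °C. An emulsifiable formulation, water-diluted to the set dose, was then sprayed onto the foliage, and effects were scored three weeks later using previously defined criteria.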

green foxtail = experiment: Test Example 4: herbicidal effect by soil treatment (Table 19, symbol G); format: in vivo, green foxtail (Setaria viridis); details: amount of applied herbicide 320 g/ha
Method in brief: as §3

velvetleaf = experiment: Test Example 5: herbicidal effect by foliage application, plastic box (Table 20, symbol M); format: in vivo, velvetleaf (Abutilon theophrasti); details: 320 g/ha; for M: velvetleaf, herbicidal effect grade: foliage application, three weeks after application
Method in brief: as §4

wild oat [12] = experiment: Test Example 5: herbicidal effect by foliage application, plastic box (Table 20, symbol I); format: in vivo, wild oat (Avena fatua); details: 320 g/ha; for I: wild oat, herbicidal effect grade: foliage application, three weeks after application
Method in brief: as §4

[13] = foliage application after 14-day growth, evaluated three weeks after application

| Structure (SMILES) | Herbicidal effect, A: late watergrass (late watergrass [1]) | herbicidal effect rating, B: Japanese bulrush (Japanese bulrush [2]) | Herbicidal effect, B: Japanese bulrush (Japanese bulrush [3]) | herbicidal effect rating, A: late watergrass (late watergrass [5]) | N: redroot pigweed, herbicidal effect grade (redroot pigweed) | K: Italian ryegrass, herbicidal effect grade (Italian ryegrass [6]) | J: blackgrass, herbicidal effect grade (blackgrass [10]) | herbicidal effect on barnyard grass (H) (barnyard grass [11]) | M: velvetleaf, herbicidal effect grade (velvetleaf) | I: wild oat, herbicidal effect grade (wild oat [12]) | herbicidal effect, K: Italian ryegrass (Italian ryegrass [4]) | herbicidal effect, P: chickweed (chickweed) | herbicidal effect, H: barnyard grass (barnyard grass [7]) | herbicidal effect, R: persian speedwell (persian speedwell) | herbicidal effect, J: blackgrass (blackgrass [8]) | herbicidal effect, I: wild oat (wild oat [9]) | herbicidal effect on H: barnyard grass (barnyard grass [11]) | herbicidal effect, G: green foxtail (green foxtail) | also measured |
| --- | --- | --- | --- | --- | --- | --- | --- | --- | --- | --- | --- | --- | --- | --- | --- | --- | --- | --- | --- |
| CCCCCOc1ccc2c(-c3c(O)c(C)nn(C)c3=O)c(-c3ccccc3OC)sc2c1 [3-108] | 3 (Herbicidal rate of 40% or more and less than 70%) | 2 (Herbicidal rate of 20% or more and less than 40%) | 3 (Herbicidal rate of 40% or more and less than 70%) | 2 (Herbicidal rate of 20% or more and less than 40%) | 5 (Herbicidal rate of 90% or more (almost completely withered)) | 0 (Herbicidal rate of 5% or less (almost no effect)) | 0 (Herbicidal rate of 5% or less (almost no effect)) | 3 (Herbicidal rate of 40% or more and less than 70%) | 2 (Herbicidal rate of 20% or more and less than 40%) | 0 (Herbicidal rate of 5% or less (almost no effect)) |  |  |  |  |  |  |  |  | K: Italian ryegrass, herbicidal effect grade (Italian ryegrass [4]): 0 (Herbicidal rate of 5% or less (almost no effect)); P: chickweed, herbicidal effect grade (chickweed): 0 (Herbicidal rate of 5% or less (almost no effect)); H: barnyard grass, herbicidal effect grade (barnyard grass [7]): 0 (Herbicidal rate of 5% or less (almost no effect)); R: persian speedwell, herbicidal effect grade (persian speedwell): 0 (Herbicidal rate of 5% or less (almost no effect)); J: blackgrass, herbicidal effect grade (blackgrass [8]): 0 (Herbicidal rate of 5% or less (almost no effect)); I: wild oat, herbicidal effect grade (wild oat [9]): 0 (Herbicidal rate of 5% or less (almost no effect)); G: green foxtail, herbicidal effect grade (green foxtail): 0 (Herbicidal rate of 5% or less (almost no effect)) |
| CCCC(=O)Oc1c(C)nn(C)c(=O)c1-c1c(-c2ccc(F)cc2OCC)sc2c(Cl)cccc12 [4-036] | 4 (Herbicidal rate of 70% or more and less than 90%) | 0 (Herbicidal rate of 5% or less (almost no effect)) | 3 (Herbicidal rate of 40% or more and less than 70%) | 3 (Herbicidal rate of 40% or more and less than 70%) |  |  |  | 5 (Herbicidal rate of 90% or more (almost completely withered)) |  |  |  |  |  |  |  |  |  |  | Herbicidal effect by soil treatment, K: Italian ryegrass (Italian ryegrass [4]): 0 (Herbicidal rate of 5% or less (almost no effect)); herbicidal effect on N: redroot pigweed (evaluation grade 0-5) (redroot pigweed; [13]): 5 (Herbicidal rate of 90% or more (almost completely withered)); herbicidal effect on K: Italian ryegrass (evaluation grade 0-5) (Italian ryegrass [6]; [13]): 4 (Herbicidal rate of 70% or more and less than 90%); Herbicidal effect by soil treatment, P: chickweed (chickweed): 2 (Herbicidal rate of 20% or more and less than 40%); Herbicidal effect by soil treatment, H: barnyard grass (barnyard grass [7]): 3 (Herbicidal rate of 40% or more and less than 70%); Herbicidal effect by soil treatment, R: persian speedwell (persian speedwell): 2 (Herbicidal rate of 20% or more and less than 40%); Herbicidal effect by soil treatment, J: blackgrass (blackgrass [8]): 0 (Herbicidal rate of 5% or less (almost no effect)); Herbicidal effect by soil treatment, I: wild oat (wild oat [9]): 0 (Herbicidal rate of 5% or less (almost no effect)); herbicidal effect on J: blackgrass (evaluation grade 0-5) (blackgrass [10]; [13]): 3 (Herbicidal rate of 40% or more and less than 70%); Herbicidal effect by soil treatment, G: green foxtail (green foxtail): 3 (Herbicidal rate of 40% or more and less than 70%); herbicidal effect on M: velvetleaf (evaluation grade 0-5) (velvetleaf; [13]): 5 (Herbicidal rate of 90% or more (almost completely withered)); herbicidal effect on I: wild oat (evaluation grade 0-5) (wild oat [12]; [13]): 0 (Herbicidal rate of 5% or less (almost no effect)) |
| CCCC(=O)Oc1c(C)nn(C)c(=O)c1-c1c(-c2ccc(F)cc2)sc2cc(F)ccc12 [3-002] | 5 (Herbicidal rate of 90% or more (almost completely withered)) | 3 (Herbicidal rate of 40% or more and less than 70%) | 3 (Herbicidal rate of 40% or more and less than 70%) | 3 (Herbicidal rate of 40% or more and less than 70%) | 5 (Herbicidal rate of 90% or more (almost completely withered)) | 4 (Herbicidal rate of 70% or more and less than 90%) | 4 (Herbicidal rate of 70% or more and less than 90%) |  | 5 (Herbicidal rate of 90% or more (almost completely withered)) | 4 (Herbicidal rate of 70% or more and less than 90%) | 4 (Herbicidal rate of 70% or more and less than 90%) | 3 (Herbicidal rate of 40% or more and less than 70%) | 0 (Herbicidal rate of 5% or less (almost no effect)) | 5 (Herbicidal rate of 90% or more (almost completely withered)) | 0 (Herbicidal rate of 5% or less (almost no effect)) | 3 (Herbicidal rate of 40% or more and less than 70%) | 5 (Herbicidal rate of 90% or more (almost completely withered)) | 0 (Herbicidal rate of 5% or less (almost no effect)) |  |
| CCCC(=O)Oc1c(CC)nn(C)c(=O)c1-c1c(-c2ccc(C(F)(F)F)cc2)sc2ccc(F)cc12 [2-411] | 3 (Herbicidal rate of 40% or more and less than 70%) | 0 (Herbicidal rate of 5% or less (almost no effect)) | 0 (Herbicidal rate of 5% or less (almost no effect)) | 3 (Herbicidal rate of 40% or more and less than 70%) | 5 (Herbicidal rate of 90% or more (almost completely withered)) | 0 (Herbicidal rate of 5% or less (almost no effect)) | 0 (Herbicidal rate of 5% or less (almost no effect)) |  | 1 (Herbicidal rate of 5% or more and less than 20%) | 0 (Herbicidal rate of 5% or less (almost no effect)) | 0 (Herbicidal rate of 5% or less (almost no effect)) | 1 (Herbicidal rate of 5% or more and less than 20%) | 0 (Herbicidal rate of 5% or less (almost no effect)) | 2 (Herbicidal rate of 20% or more and less than 40%) | 0 (Herbicidal rate of 5% or less (almost no effect)) | 0 (Herbicidal rate of 5% or less (almost no effect)) | 5 (Herbicidal rate of 90% or more (almost completely withered)) | 0 (Herbicidal rate of 5% or less (almost no effect)) |  |
| CCCC(=O)Oc1c(C)nn(C)c(=O)c1-c1c(-c2ccc(OC)cc2)sc2cc(F)ccc12 [3-008] | 5 (Herbicidal rate of 90% or more (almost completely withered)) | 2 (Herbicidal rate of 20% or more and less than 40%) | 5 (Herbicidal rate of 90% or more (almost completely withered)) | 0 (Herbicidal rate of 5% or less (almost no effect)) | 5 (Herbicidal rate of 90% or more (almost completely withered)) | 3 (Herbicidal rate of 40% or more and less than 70%) | 1 (Herbicidal rate of 5% or more and less than 20%) |  | 5 (Herbicidal rate of 90% or more (almost completely withered)) | 0 (Herbicidal rate of 5% or less (almost no effect)) | 0 (Herbicidal rate of 5% or less (almost no effect)) | 5 (Herbicidal rate of 90% or more (almost completely withered)) | 0 (Herbicidal rate of 5% or less (almost no effect)) | 5 (Herbicidal rate of 90% or more (almost completely withered)) | 0 (Herbicidal rate of 5% or less (almost no effect)) | 0 (Herbicidal rate of 5% or less (almost no effect)) | 4 (Herbicidal rate of 70% or more and less than 90%) | 0 (Herbicidal rate of 5% or less (almost no effect)) |  |
